Assay results as given in patent US9212169B2, “Benzimidazole derivative and use thereof” (HYOGO COLLEGE OF MEDICINE, priority 2012, dated 2015).
Where two headings read alike, the source gives them in different places.

Assays:
[1] = molecular target: T1, silkworm recombinant PCA-1 (Homo sapiens, UniProt Q96Q83); test: Evaluation of PCA-1 inhibitory activity (demethylation of 3-methyl cytosine-containing oligo DNA, real-time PCR); assay type: biochemical; conditions: 37° C., 1 hr; for inhibition at 1 µM: test compound 1 μM; for inhibition at 10 µM: test compound 10 μM
T1 construct: made in house; host or cells: silkworm
T1 sequence (Q96Q83 1-286): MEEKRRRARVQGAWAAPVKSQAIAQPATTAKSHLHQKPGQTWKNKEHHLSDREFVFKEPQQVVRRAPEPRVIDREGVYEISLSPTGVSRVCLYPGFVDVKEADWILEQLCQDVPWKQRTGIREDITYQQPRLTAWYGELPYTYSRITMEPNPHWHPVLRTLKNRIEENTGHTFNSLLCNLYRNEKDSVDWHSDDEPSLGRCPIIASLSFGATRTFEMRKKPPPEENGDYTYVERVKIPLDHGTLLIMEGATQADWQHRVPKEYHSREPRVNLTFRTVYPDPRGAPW
Experimental: To an enzyme reaction solution (50 mM trishydrochloric acid buffer (pH 8.0), 2 mM ascorbic acid, 100 μM oxoglutaric acid, 40 μM ferric sulfate) containing 80 fmol 3-methyl cytosine-containing oligo DNA as a substrate were added a test compound (10 μM, 1 μM) and 4 ng silkworm recombinant PCA-1, and the mixture was incubated at 37° C. for 1 hr. After completion of the reaction, the enzyme reaction solution was 20-fold diluted with water to quench the reaction. Using 2 μL thereof, real-time PCR (Bio-Rad iQ SYBR Green Supermix) was performed in a 20 μL reaction system. The analytical curve was formed using a dilution series of the non-methylated oligoDNA. The primers used were forward primer 24 bases and reverse primer 22 bases. Reaction conditions: 95° C., 10 seconds→40 cycles of 95° C., 5 seconds, 61° C., 30 seconds, and 72° C., 15 seconds→95° C., 1 min→55° C., 1 min→55° C., 10 seconds, after which increased by 0.5° C. to 95° C. for 10 seconds→preserved at 25° C.
The degree of demethylation in the presence or absence of the test compound was compared and the inhibitory activity was evaluated.

[2] = tested on: DU145 (prostate cancer cell); test: Cancer cell proliferation suppressive action, DU145 (WST-1); assay type: cell-based; conditions: Homo sapiens, read-out: DU145 proliferation inhibitory activity (%)
Experimental: cell line used: DU145 (prostate cancer cell: Institute of Development, Aging and Cancer, Tohoku University, Cell Resource Center for Biomedical Research)
evaluation of scaffolding dependency growth suppressive action:
The cells were plated on a 96 well plate at 5×10^3 cells/well/90 μL, and cultured overnight. The test compound (10 μM) was added and, after culture for 48 hr, a 1:9 mixture of aqueous 1-methoxy-5-methylphenazinium methylsulfate (PMS) solution and 2-(4-iodophenyl)-3-(4-nitrophenyl)-5-(2,4-disulfophenyl)-2H-tetrazolium, monosodium salt (WST-1)/20 mM 4-(2-hydroxyethyl)-1-piperazineethanesulfonic acid (HEPES) solution (DOJIN) was added by 10 μL, and the absorbance was measured at 450 nm 2 hr later. As a control wavelength, 630 nm was used.

DU145 cell xenograft = test: Antitumor action using prostate cancer xenograft model; assay type: in vivo, BALB/c nu/nu mouse; conditions: subcutaneously administered, suspended in 0.5 w/v % carboxycellulose; tumor volume
Description: A prostate cancer xenograft model was produced as shown below.
DU145 cells (4×10^6 cells) were mixed with BD Matrigel Basememt Membrane Matrix High Concentration (Becton, Dickinson and Company), and subcutaneously transplanted to the back of BALB/c nu/nu mouse. After transplantation, the tumor was isolated when it reached a volume of about 200 mm^3, and subcutaneously transplanted into the back of a different BALB/c nu/nu mouse. This operation was repeated three times to generate a tumor derived from DU145 cells that grow stably. A model mouse for the evaluation of the compound was prepared by finely cutting the in vivo passaged tumor into about 10 mm^3, and subcutaneously transplanting same into the back of a BALB/c nu/nu mouse.
The compound of Example 1 was suspended in 0.5 w/v % sterile carboxycellulose (Wako Pure Chemical Industries, Ltd.), and subcutaneously administered to the back. The volume of the tumor was calculated using the formula of (long diameter)×(short diameter)^2×0.5.

Row | inhibition at 1 µM [1] | inhibition at 10 µM [1] | SMILES | inhibition at 10 µM ([2]; DU-145, test compound 10 μM, culture for 48 hr) | antitumor action in a DU145 cell xenograft model (FIG. 1) (DU145 cell xenograft) | inhibition at 10 µM ([2]; DU-145, 48 h)
1 | 24% | 81% | Cc1ccc2[nH]c(-n3nc(C)c(Cc4ccccc4)c3O)nc2c1 [Example 1, 1-(5-methyl-1H-benzimidazol-2-yl)-3-methyl-4-(phenylmethyl)-1H-pyrazol-5-ol] | 60% | antitumor action | –
2 | 21% | 60% | Cc1nn(-c2nc3cc(Cl)ccc3[nH]2)c(O)c1Cc1ccccc1 [Example 3, 1-(5-chloro-1H-benzimidazol-2-yl)-3-methyl-4-(phenylmethyl)-1H-pyrazol-5-ol] | – | – | –
3 | 50% | 82% | Cc1nn(-c2nc3cc(C(F)(F)F)ccc3[nH]2)c(O)c1Cc1ccccc1 [Example 4, 3-methyl-4-(phenylmethyl)-1-(5-trifluoromethyl-1H-benzimidazol-2-yl)-1H-pyrazol-5-ol] | – | – | –
4 | 50% | 91% | Cc1nn(-c2nc3cc(C(C)(C)C)ccc3[nH]2)c(O)c1Cc1ccccc1 [Example 5, 1-[5-(1,1-dimethylethyl)-1H-benzimidazol-2-yl]-3-methyl-4-(phenylmethyl)-1H-pyrazol-5-ol] | – | – | –
5 | 36% | 82% | Cc1ccc2[nH]c(-n3nc(C)c(Cc4ccc5ccccc5c4)c3O)nc2c1 [Example 11, 3-methyl-1-(5-methyl-1H-benzimidazol-2-yl)-4-(2-naphthylmethyl)-1H-pyrazol-5-ol] | – | – | –
6 | -1% | 76% | Cc1cc(O)n(-c2nc3ccccc3[nH]2)n1 [Example 15] | – | – | –
7 | 25% | 76% | Cc1ccc2[nH]c(-n3nc(C)c(C)c3O)nc2c1 [Example 17] | – | – | –
8 | 39% | 68% | Cc1nn(-c2nc3ccccc3[nH]2)c(O)c1Cc1ccc(F)cc1 [Example 25] | – | – | –
9 | 49% | 81% | Cc1ccc2[nH]c(-n3nc(C)c(Cc4ccc(F)cc4)c3O)nc2c1 [Example 32] | – | – | –
10 | 49% | 80% | COc1ccc(Cc2c(C)nn(-c3nc4cc(C)ccc4[nH]3)c2O)cc1 [Example 34] | – | – | –
11 | 38% | 64% | Cc1nn(-c2nc3cc(-c4ccccc4)ccc3[nH]2)c(O)c1Cc1ccccc1 [Example 37] | – | – | –
12 | 21% | 61% | Cc1ccc(-c2ccc3[nH]c(-n4nc(C)c(Cc5ccccc5)c4O)nc3c2)cc1 [Example 40] | – | – | –
13 | 43% | 81% | CCCCCCc1c(C)nn(-c2nc3cc(C)ccc3[nH]2)c1O [Example 45] | – | – | –
14 | 47% | 81% | Cc1ccc2[nH]c(-n3nc(C)c(CC4CCCCC4)c3O)nc2c1 [Example 46] | – | – | –

Row | SMILES | inhibition at 1 µM [1] | inhibition at 10 µM [1] | inhibition at 10 µM ([2]; DU-145, test compound 10 μM, culture for 48 hr) | antitumor action in a DU145 cell xenograft model (FIG. 1) (DU145 cell xenograft) | inhibition at 10 µM ([2]; DU-145, 48 h)
15 | Cc1nn(-c2nc3ccccc3[nH]2)c(O)c1C [Example 13] | 19% | 76% | – | – | 22%
16 | Cc1nn(-c2nc3ccccc3[nH]2)c(O)c1Cc1ccccc1 [Example 14] | 35% | 80% | – | – | 45%
17 | Cc1nn(-c2nc3ccccc3[nH]2)c(O)c1-c1ccccc1 [Example 18] | 27% | 74% | – | – | –
18 | Cc1nn(-c2nc3ccccc3[nH]2)c(O)c1Cc1ccc2ccccc2c1 [Example 19] | 38% | 76% | – | – | –
19 | Cc1nn(-c2nc3ccccc3[nH]2)c(O)c1Cc1ccc(C(F)(F)F)cc1 [Example 24] | 61% | 67% | – | – | –
20 | COc1ccc(Cc2c(C)nn(-c3nc4ccccc4[nH]3)c2O)cc1 [Example 31] | 47% | 85% | – | – | –
21 | Cc1ccc2[nH]c(-n3nc(C)c(Cc4ccccc4Cl)c3O)nc2c1 [Example 33] | 54% | 82% | – | – | –
22 | Cc1nn(-c2nc3cc(-c4ccc(Cl)cc4)ccc3[nH]2)c(O)c1Cc1ccccc1 [Example 35] | 25% | 77% | – | – | –
23 | Cc1ccc2[nH]c(-n3nc(C)c(-c4ccccc4)c3O)nc2c1 [Example 42] | 37% | 65% | – | – | –
